One assay concerns the target T1, NS5PolDV (Dengue virus type 2, UniProt P14340).
T1 construct: The junction (or where the Pol domain starts) is located at amino acid 272; His-tag; made in house; host or cells: E. coli BL21[pDNAy], plasmid pQE30
The assay is described as follows: RNA polymerase activity of NS5PolDV on homopolymeric template poly(rC), [3H]-GTP incorporation. The assay is classed as biochemical, Dengue virus (subtype 2, Strain New Guinea C). The settings on record: for IC50: poly(rC) without primer, GTP 10 mM (so in the source), NS5PolDV 60 nM, [3H]-GTP incorporation after 15 min. The method, then: (§1) Activity was tested on three homopolymeric templates: poly(rC), poly(rU) and poly(rA). Only poly(rC) resulted to be a productive template for NS5PolDV. This was illustrated in FIG. 4 based on the following protocol: RNA polymerase activity was tested on a homopolymeric RNA template (polycytidylic acid, Amersham Biosciences) of an average length of 360 nt. A standard assay was carried out in 50 mM HEPES buffer, pH 8.0, 10 mM KCl, 5 mM MgCl2, 5 mM MnCl2, 10 mM DTT containing 1 μM template, […] primer GG, 10 μM GTP, 0.01 mCi [3H]-GTP per μl reaction mixture and the concentration of enzyme given below. Reactions were carried out at 30° C. for given time periods and stopped by spotting a sample on DEAE filter discs (Whatman) presoaked with 50 mM EDTA. Filters were washed 3×10 min with 300 mM (NH4)2SO4 buffer, pH 8.0 and 2×5 min with EtOH and air-dried. Liquid scintillation fluid was added and incorporation in counts per minute (cpm) determined by using a Wallac MicroBeta TriLux Liquid Scintillation Counter.
A: Influence of specific E. coli RNA polymerase inhibitor rifampicin on NS5PolDV and E. coli polymerase (control). NS5PolDV was tested using the conditions given above at 64-nM enzyme concentration. E. coli RNA polymerase was obtained from USBiochemicals and used in NS5PolDV standard reaction buffer at 37 nM.
In FIG. 5, the steady-state Km determination of GTP with various ligands was performed as follows: RNA polymerase activity was tested under conditions given in the description set forth above in the experiments related to FIG. 4 without the use of a primer. Initial velocities were determined over a time period of 5 min. GTP concentrations in the range of 2 to 500 μM were tested using poly(rC) at 1 μM. Template poly(rC) was tested in the range of 2 to 1000 nM with GTP fixed at 200 μM.
Initial velocities were determined on poly(rC) at 10 mM GTP and compared to corresponding values without inhibitor. […] Since these inhibition results are not identical, questions related to the putative interference of the capping domain remain when using the full-length polymerase.

In a further assay the target is T2, NS5PolWNV (West Nile virus, UniProt Q9Q6P4, K2808N/V2900A).
T2 construct: His-tag; made in house
T2 sequence (Q9Q6P4 2802-3433 K2808N/V2900A): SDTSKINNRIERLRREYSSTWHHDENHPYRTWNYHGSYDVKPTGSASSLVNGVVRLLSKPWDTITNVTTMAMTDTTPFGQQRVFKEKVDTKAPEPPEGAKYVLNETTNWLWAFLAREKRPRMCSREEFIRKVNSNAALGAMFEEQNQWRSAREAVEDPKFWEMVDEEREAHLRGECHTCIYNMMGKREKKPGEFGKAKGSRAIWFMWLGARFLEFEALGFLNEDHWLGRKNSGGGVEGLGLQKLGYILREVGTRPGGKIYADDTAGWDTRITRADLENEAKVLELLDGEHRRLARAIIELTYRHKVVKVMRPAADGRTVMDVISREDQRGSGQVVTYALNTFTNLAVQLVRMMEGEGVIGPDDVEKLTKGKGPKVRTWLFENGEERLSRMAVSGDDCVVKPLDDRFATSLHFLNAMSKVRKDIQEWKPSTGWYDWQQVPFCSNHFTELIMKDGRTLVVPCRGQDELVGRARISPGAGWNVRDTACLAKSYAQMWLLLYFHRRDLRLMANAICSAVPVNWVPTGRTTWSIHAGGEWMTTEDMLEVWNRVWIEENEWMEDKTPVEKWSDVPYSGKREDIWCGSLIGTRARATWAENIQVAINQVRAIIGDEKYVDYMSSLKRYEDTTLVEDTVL
The assay is described as follows: RNA polymerase activity of NS5PolWNV on homopolymeric template poly(rC), [3H]-GTP incorporation. The settings on record: poly(rC) without primer; GTP 100 mM (so in the source); [3H]-GTP incorporation after 15 min. The assay is classed as biochemical, West Nile virus (strain New York 99).

For a further assay, the target named is T3, full-length NS5DV (Dengue virus type 2, UniProt P14340).
T3 construct: His-tag; made in house; host or cells: E. coli BL21[pDNAy], plasmid pQE30
The assay is described as follows: RNA polymerase activity of full-length NS5DV on poly(rC). The assay is classed as biochemical, Dengue virus (subtype 2, Strain New Guinea C). Particulars: inhibitor 10 mM, 10 mM GTP, read-out: Initial velocity compared to the protein without inhibitor. As to the method:
as §1, with “Filters were washed 3×10 min with 300 mM (NH4)2SO4 buffer, pH 8.0 and 2×5 min with EtOH and air-dried.” left out
In FIG. 5, the steady-state Km determination of GTP with various ligands was performed as follows: RNA polymerase activity was tested under conditions given in the description set forth above in the experiments related to FIG. 4 without the use of a primer. Initial velocities were determined over a time period of 5 min. […]
Initial velocities were determined on poly(rC) at 10 mM GTP and compared to corresponding values without inhibitor. […]

On to 3′-dioxolane 3′-deoxy GTP, for which the IC50 against NS5PolDV was found to be 1.2 µM; at NS5PolWNV, 58 µM.
For the compound `Nc1nc2c(ncn2[C@H]2CC[C@@H](COP(=O)(O)OP(=O)(O)OP(=O)(O)O)O2)c(=O)[nH]1` [2′,3′-dideoxy GTP], half-maximal inhibition at NS5PolDV (IC50) was put at 0.8 µM.
Take `CO[C@@H]1[C@H](O)[C@@H](COP(=O)(O)OP(=O)(O)OP(=O)(O)O)O[C@H]1n1cnc2c(=O)[nH]c(N)nc21` [2′-O-methyl-GTP]: the values for the activity at 10000 µM at full-length NS5DV and on NS5PolDV (read-out: Initial velocity compared to the protein without inhibitor) were 19.3% and 29.3%, respectively. On NS5PolDV, this compound came in with an IC50 of 5.6 µM.
`Nc1nc2c(ncn2[C@@H]2O[C@H](COP(=O)(O)OP(=O)(O)OP(=O)(O)O)C[C@H]2O)c(=O)[nH]1` [3′-deoxy GTP] returned a half-maximal inhibitory concentration (IC50) on NS5PolDV of 0.02 µM.
